In brackets after ≈: the same amount, converted by molar mass. Structures can show the parent of a compound that is named as a salt.
Experiments:
[1] = system: Newcastle disease virus; experiment: Antiviral activity against Newcastle disease virus Miyadera infected in CEF assessed as suppression of <= 1% hemagglutinating activity by tube assay; format: functional; details: avian paramyxovirus 1, Miyadera
[2] = Cytotoxicity against CEF after 24 hrs by microscopic analysis; design: species or system Gallus gallus; details: chicken; for MCC at 24 h: CEF cells; for MCC: 24 h
[3] = Ratio of MCC for CEF to MIC for Newcastle disease virus Miyadera infected in CEF
[4] = system: Newcastle disease virus; experiment: Ratio of amantadine hydrochloride MIC to compound MIC for Newcastle disease virus Miyadera infected in CEF; format: functional, avian paramyxovirus 1

| Compound | MIC [1] | MCC at 24 h [2] | Ratio [3] | Ratio [4] | MCC [2] |
| --- | --- | --- | --- | --- | --- |
| C1CC2CC3CCC2C(C1)C3 | 670 µM (≈ 101 µg/mL) | 670 µM |  |  |  |
| N#CC12CCCC3CC(CCC31)C2 (stereo not given) | 570 µM (≈ 99.9 µg/mL) | 850 µM |  |  |  |
| OCC12CCCC3CC(CCC31)C2 (stereo not given) | 440 µM (≈ 79.3 µg/mL) | 870 µM |  |  |  |
| NC(=O)C12CCCC3CC(CCC31)C2 (stereo not given) | 2600 µM (≈ 503 µg/mL) | 5200 µM |  |  |  |
| O=C1C2CCC3C(CCCC13)C2 (stereo not given) | 1200 µM (≈ 197 µg/mL) | 2400 µM |  |  |  |
| O=C(NC1CCCCC1)C12CCCC3CC(CCC31)C2 (stereo not given) | 2250 µM (≈ 620 µg/mL) | 2250 µM |  |  |  |
| OC12CCCC3CC(CCC31)C2 (stereo not given) | 3000 µM (≈ 499 µg/mL) | 6000 µM |  |  |  |
| Cl.NC12CCCC3CC(CCC31)C2 (stereo not given) | 25 µM | 200 µM | 2 | 30 |  |
| CNC(=O)C12CCCC3CC(CCC31)C2 (stereo not given) | 3000 µM (≈ 622 µg/mL) | 750 µM |  |  |  |
| COC(=O)C12CCCC3CC(CCC31)C2 (stereo not given) | 80 µM (≈ 16.7 µg/mL) | 80 µM |  |  |  |
| O[C@H]1C2CCCC3C[C@H]1CC[C@H]32 (relative stereo) | 900 µM (≈ 150 µg/mL) | 1800 µM |  |  |  |
| CC(=O)NC12CCCC3CC(CCC31)C2 (stereo not given) | 750 µM (≈ 155 µg/mL) | 3000 µM |  |  |  |
| O=C(O)C12CCCC3CC(CCC31)C2 (stereo not given) | 10000 µM (≈ 1940 µg/mL) | 10000 µM |  |  |  |
| CCCCCCCCOC(=O)C12CCCC3CC(CCC31)C2 (stereo not given) | 330 µM (≈ 101 µg/mL) | 490 µM |  |  |  |
| O=C(Cl)C12CCCC3CC(CCC31)C2 (stereo not given) |  |  |  |  | ND(Unstable) |
| O[C@@H]1C2CCCC3C[C@@H]1CC[C@@H]32 (relative stereo) | 750 µM (≈ 125 µg/mL) | 750 µM |  |  |  |
| Cl.NCC12CCCC3CC(CCC31)C2 (stereo not given) | 45 µM | 90 µM | 2 | 30 |  |
| BrC12CCCC3CC(CCC31)C2 (stereo not given) |  |  |  |  | ND(Unstable) |
| CCCCNC(=O)C12CCCC3CC(CCC31)C2 (stereo not given) | 625 µM (≈ 156 µg/mL) | 300 µM |  |  |  |
| C1=C2CCCC3CC1CCC23 (stereo not given) |  |  |  |  | ND(Unstable) |
| O=C(NC12CC3CC(CC(C3)C1)C2)C12CCCC3CC(CCC31)C2 (stereo not given) | 7500 µM (≈ 2460 µg/mL) | 2000 µM |  |  |  |
| NC12CC3CC(CC(C3)C1)C2 [AMANTADINE HYDROCHLORIDE] | 1300 µM | 1300 µM |  |  |  |
